Assays:
Assay in all cases: HPAEC-PAD of hydrolysis products
Assay type in all cases: biochemical
AGY82530 = target: T1, AGY82530 (Carnobacterium inhibens, UniProt A0ABR7TC15); conditions: […] M6, […] phosphate pH […] C; overnight incubation
T1 construct: gene GLO26_06385; predicted GH113 catalytic domain; no signal peptide predicted; N-terminal His6 tag (pHTP1), E. coli BL21(DE3); codon-optimised synthetic gene
T1 sequence (A0ABR7TC15 1-309): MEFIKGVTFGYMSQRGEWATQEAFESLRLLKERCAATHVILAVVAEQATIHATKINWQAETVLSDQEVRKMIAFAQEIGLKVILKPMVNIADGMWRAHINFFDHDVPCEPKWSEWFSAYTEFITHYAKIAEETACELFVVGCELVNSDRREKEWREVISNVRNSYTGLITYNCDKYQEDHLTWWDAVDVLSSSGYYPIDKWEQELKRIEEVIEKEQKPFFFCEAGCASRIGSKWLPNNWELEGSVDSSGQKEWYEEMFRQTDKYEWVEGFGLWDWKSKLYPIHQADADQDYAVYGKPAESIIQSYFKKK

AIQ46016 = target: T2, AIQ46016 (Paenibacillus sp. FSL R7-0273, UniProt A0A089KA84); conditions: […] M6, […] phosphate pH […] C; overnight incubation
T2 construct: gene R70723_09070; predicted GH113 catalytic domain; no signal peptide predicted; N-terminal His6 tag (pHTP1), E. coli BL21(DE3); codon-optimised synthetic gene
T2 sequence (A0A089KA84 1-318): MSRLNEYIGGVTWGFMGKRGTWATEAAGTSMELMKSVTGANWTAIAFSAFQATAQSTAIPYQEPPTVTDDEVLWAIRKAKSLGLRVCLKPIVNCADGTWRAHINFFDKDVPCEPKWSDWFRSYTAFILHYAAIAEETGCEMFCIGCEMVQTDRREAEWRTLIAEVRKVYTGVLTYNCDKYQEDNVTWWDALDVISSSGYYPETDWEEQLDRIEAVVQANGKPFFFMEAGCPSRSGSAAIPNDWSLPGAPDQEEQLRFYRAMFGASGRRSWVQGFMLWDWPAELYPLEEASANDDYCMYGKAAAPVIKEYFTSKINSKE

EDP22100 = target: T3, EDP22100 (Faecalibacterium prausnitzii, UniProt A8S9T0); conditions: 100 uM M6, 10 mM phosphate pH 7.5, 25 C; reaction time course
T3 construct: gene FAEPRAM212_01134; predicted GH113 catalytic domain; no signal peptide predicted; N-terminal His6 tag (pHTP1), E. coli BL21(DE3); codon-optimised synthetic gene
T3 sequence (A8S9T0 1-309): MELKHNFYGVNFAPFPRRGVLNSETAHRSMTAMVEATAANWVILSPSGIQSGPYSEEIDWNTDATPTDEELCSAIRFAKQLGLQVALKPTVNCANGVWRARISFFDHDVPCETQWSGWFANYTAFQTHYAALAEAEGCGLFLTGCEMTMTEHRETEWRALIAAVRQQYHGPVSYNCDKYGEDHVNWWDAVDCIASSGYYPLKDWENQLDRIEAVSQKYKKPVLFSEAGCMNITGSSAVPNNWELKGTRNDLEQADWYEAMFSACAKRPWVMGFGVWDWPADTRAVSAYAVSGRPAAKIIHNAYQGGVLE

## OC[C@H]1O[C@@H](O[C@H]2[C@H](O)[C@H](O)[C@H](O[C@H]3[C@H](O)[C@H](O)[C@H](O[C@H]4[C@H](O)[C@H](O)[C@H](O[C@H]5[C@H](O)[C@H](O)[C@H](O[C@H]6[C@H](O)[C@H](O)C(O)O[C@@H]6CO)O[C@@H]5CO)O[C@@H]4CO)O[C@@H]3CO)O[C@@H]2CO)[C@@H](O)[C@@H](O)[C@@H]1O (stereo partly drawn) [M6, mannohexaose]
AGY82530
  HPAEC-PAD of hydrolysis products: end-products released by AGY82530, AGF59019, AIQ46016 and AIQ63165 after overnight incubation with M6
AIQ46016
  HPAEC-PAD of hydrolysis products: end-products released by AGY82530, AGF59019, AIQ46016 and AIQ63165 after overnight incubation with M6
EDP22100
  HPAEC-PAD of hydrolysis products: confirming the release of mannose from mannohexaose (M6)

— PMC9032380, “Functional exploration of the glycoside hydrolase family GH113” (PLoS ONE, 2022)
